Measurements taken from ChEMBL document CHEMBL1143809, “New bis-N9-(methylphenylmethyl)purine derivatives: synthesis and antitumor activity” (2007).

Assays:
Type in all cases: functional
[1] = test system: COLO 205; test: Growth inhibition of human COLO205 cells after 48 hrs by SRB protein assay; details: COLO 205, 48 h
[2] = test system: EKVX; test: Growth inhibition of human EKVX cells after 48 hrs by SRB protein assay
[3] = test system: RXF 393; test: Growth inhibition of human RXF393 cells after 48 hrs by SRB protein assay; details: RXF 393, 48 h
[4] = test system: BT-549; test: Growth inhibition of human BT549 cells after 48 hrs by SRB protein assay; details: BT-549, 48 h
[5] = test system: SNB-75; test: Growth inhibition of human SNB75 cells after 48 hrs by SRB protein assay; details: SNB-75, 48 h
[6] = test system: NCI-H460; test: Anticancer activity against human NCL-H460 cells assessed as growth at 100 uM after 48 hrs by SRB protein assay relative to control; details: NCI-H460, 48 h, read-out: Activity
[7] = test system: U-251; test: Growth inhibition of human U251 cells after 48 hrs by SRB protein assay; details: U-251, 48 h
[8] = test system: SK-MEL-28; test: Growth inhibition of human SK-MEL-28 cells after 48 hrs by SRB protein assay; details: SK-MEL-28, 48 h
[9] = Growth inhibition of human NCL-H322M cells after 48 hrs by SRB protein assay
[10] = test system: TK-10; test: Growth inhibition of human TK10 cells after 48 hrs by SRB protein assay; details: TK-10, 48 h
[11] = Growth inhibition of human LOX MIVI cells after 48 hrs by SRB protein assay
[12] = Growth inhibition of human NCL-H522 cells after 48 hrs by SRB protein assay; details: NCL-H522, 48 h
[13] = test system: NCI/ADR-RES; test: Growth inhibition of human NCI/ADR-RES cells after 48 hrs by SRB protein assay
[14] = test system: A549; test: Growth inhibition of human A549 cells after 48 hrs by SRB protein assay; details: A549, 48 h
[15] = test system: HCT-116; test: Growth inhibition of human HCT116 cells after 48 hrs by SRB protein assay; details: HCT-116, 48 h
[16] = test system: 786-0; test: Growth inhibition of human 786-0 cells after 48 hrs by SRB protein assay; details: 786-0, 48 h
[17] = test system: ACHN; test: Growth inhibition of human ACHN cells after 48 hrs by SRB protein assay
[18] = test system: MOLT-4; test: Growth inhibition of human MOLT4 cells after 48 hrs by SRB protein assay; details: MOLT-4, 48 h
[19] = test system: DU-145; test: Growth inhibition of human DU145 cells after 48 hrs by SRB protein assay; details: DU-145, 48 h
[20] = test system: SF-268; test: Anticancer activity against human SF268 cells assessed as growth at 100 uM after 48 hrs by SRB protein assay relative to control; details: SF-268, 48 h, read-out: Activity
[21] = test system: OVCAR-3; test: Growth inhibition of human OVCAR-3 cells after 48 hrs by SRB protein assay; details: OVCAR-3, 48 h
[22] = test system: KM12; test: Growth inhibition of human KM12 cells after 48 hrs by SRB protein assay; details: KM12, 48 h
[23] = test system: MDA-MB-435; test: Growth inhibition of human MDA-MB-435 cells after 48 hrs by SRB protein assay; details: MDA-MB-435, 48 h
[24] = test system: UACC-62; test: Growth inhibition of human UACC62 cells after 48 hrs by SRB protein assay; details: UACC-62, 48 h
[25] = test system: NCI-H460; test: Growth inhibition of human NCL-H460 cells after 48 hrs by SRB protein assay; details: NCI-H460, 48 h
[26] = test system: UACC-257; test: Growth inhibition of human UACC257 cells after 48 hrs by SRB protein assay; details: UACC-257, 48 h
[27] = test system: HCC 2998; test: Growth inhibition of human HCC2998 cells after 48 hrs by SRB protein assay; details: HCC 2998, 48 h
[28] = test system: HOP-92; test: Growth inhibition of human HOP92 cells after 48 hrs by SRB protein assay; details: HOP-92, 48 h
[29] = test system: A498; test: Growth inhibition of human A498 cells after 48 hrs by SRB protein assay; details: A498, 48 h
[30] = test system: HOP-62; test: Growth inhibition of human HOP62 cells after 48 hrs by SRB protein assay; details: HOP-62, 48 h
[31] = test system: PC-3; test: Growth inhibition of human PC3 cells after 48 hrs by SRB protein assay; details: PC-3, 48 h
[32] = test system: MCF7; test: Growth inhibition of human MCF7 cells after 48 hrs by SRB protein assay; details: MCF7, 48 h
[33] = test system: CCRF-CEM; test: Growth inhibition of human CCRF-CEM cells after 48 hrs by SRB protein assay
[34] = test system: MCF7; test: Anticancer activity against human MCF7 cells assessed as growth at 100 uM after 48 hrs by SRB protein assay relative to control; details: MCF7, 48 h, read-out: Activity
[35] = read-out: LC50 (the source's name)

Clc1nc(Cl)c2ncn(Cc3cccc(Cn4cnc5c(Cl)nc(Cl)nc54)c3)c2n1
GI50 [1]: 3.38 µM | LC50 [1]: > 100 µM | TGI [1]: > 11.2 µM | GI50 [2]: 3.09 µM | LC50 [2]: 41.7 µM | TGI [2]: 11 µM | GI50 [3]: 1.9 µM | TGI [3]: 3.71 µM | CC50 [3, 35]: 7.24 µM | GI50 [4]: 3.38 µM | TGI [4]: 11 µM | CC50 [4, 35]: 34.7 µM | GI50 [5]: 2.23 µM | TGI [5]: 5.62 µM | CC50 [5, 35]: 93.3 µM | growth at 100 µM [6]: 0% | GI50 [7]: 3.89 µM | TGI [7]: 13.8 µM | CC50 [7, 35]: 38.9 µM | GI50 [8]: 4.26 µM | LC50 [8]: > 100 µM | TGI [8]: 22.4 µM | GI50 [9]: 14.1 µM | TGI [9]: 27.5 µM | CC50 [9, 35]: 52.5 µM | GI50 [10]: 2.45 µM | LC50 (50% lethal concentration) [10]: 26.9 µM | TGI [10]: 7.24 µM | GI50 [11]: 2.23 µM | LC50 [11]: 21.9 µM | TGI [11]: 5.62 µM | GI50 [12]: 2.88 µM | LC50 [12]: 41.7 µM | TGI [12]: 7.07 µM | GI50 [13]: 12.6 µM | LC50 [13]: 97.7 µM | TGI [13]: 34.7 µM | GI50 [14]: 11.2 µM | LC50 [14]: 61.6 µM | TGI [14]: 26.3 µM | GI50 [15]: 5.75 µM | TGI [15]: 22.4 µM | CC50 [15, 35]: 9.33 µM | GI50 [16]: 12.3 µM | TGI [16]: 26.3 µM | CC50 [16, 35]: 57.5 µM | GI50 [17]: 2.51 µM | LC50 [17]: 21.4 µM | TGI [17]: 6.16 µM | GI50 [18]: 3.46 µM | LC50 [18]: > 100 µM | TGI [18]: 13.8 µM | GI50 [19]: 1.73 µM | TGI [19]: 3.09 µM | CC50 [19, 35]: 5.62 µM | growth at 100 µM [20]: 0% | GI50 [21]: 2.39 µM | LC50 [21]: 28.2 µM | TGI [21]: 7.24 µM | GI50 [22]: 2.88 µM | LC50 (concentration killing 50% of cells) [22]: 33.1 µM | TGI [22]: 8.91 µM | GI50 [23]: 7.24 µM | LC50 [23]: 58.9 µM | TGI [23]: 22.4 µM | GI50 [24]: 2.39 µM | LC50 (concentration killing 50% of cells) [24]: 22.4 µM | TGI [24]: 5.88 µM | GI50 [25]: 3.71 µM | TGI [25]: 13.5 µM | CC50 [25, 35]: 58.9 µM | GI50 [26]: 4.78 µM | TGI [26]: 17.4 µM | CC50 [26, 35]: 56.2 µM | GI50 [27]: 2.39 µM | LC50 [27]: 25.7 µM | TGI [27]: 7.07 µM | GI50 [28]: 6.16 µM | LC50 [28]: 70.8 µM | TGI [28]: 22.4 µM | GI50 [29]: 4.57 µM | TGI [29]: 17.4 µM | CC50 [29, 35]: 46.8 µM | GI50 [30]: 5.01 µM | LC50 [30]: 51.3 µM | TGI [30]: 17.8 µM | GI50 [31]: 3.98 µM | TGI [31]: 13.5 µM | CC50 [31, 35]: 40.7 µM | GI50 [32]: 3.63 µM | LC50 [32]: > 100 µM | TGI [32]: 37.1 µM | GI50 [33]: 2.23 µM | TGI [33]: 5.37 µM | CC50 [33, 35]: > 100 µM | growth at 100 µM [34]: 0%
